The source of these data is patent publication US20190216751A1, “Compositions and Methods for the Treatment and Prevention of Cancer” (California State University Northridge, priority 2017, published 2019).

Assay [1] has as its system eIF5A localization in 67NR cells. In words: Immunofluorescence, subcellular localization of total eIF5A. Type of assay: cell-based, mouse. The conditions noted are these: 1 and 10 μM GC7, 48 hours. On the procedure: (§1) Thus, we interrogated the subcellular localization of eIF5A protein using immunofluorescent staining under control as well as 1 and 10 μM GC7 treatment conditions in triple negative breast cancer lines (FIGS. 12A and 12B).
(§2) Cells were plated at 1e4 cells/mL at 4 mL in a 6-well plate containing a sterile glass coverslip and allowed to attach overnight. Cells were then treated with appropriate inhibitors at indicated concentrations and time-points. Cells were first fixed using 4% paraformaldehyde for 20 minutes. Cells were then subjected to Triton-X to permeabilize the cells before treatment with specific antibodies in 2% BSA in PBS. After primary antibody incubation for 90 minutes, cells were washed with PBS three times before incubating with secondary antibodies in 2% BSA in PBS for 1 hour. Cells were again washed with PBS three times before set overnight staining with DAPI. Cells were then imaged using a Leica DMI6000 inverted microscope at 100× magnification.

For assay [2], the system named is FOXP3+ T regulatory cell populations. The note with it: increasing concentrations of GC7, type 1 diabetic mice in vivo; cited from earlier work.
Another assay has as its system 4T1 cells. In words: Cell number by phase-contrast images, with TGFβ. Type of assay: cell-based, mouse. The conditions noted are these: 10 μM each drug, 96-hour time point. On the procedure: (§3) Next, the inventors investigated whether blockade of HDAC6 and DHPS activity could further suppress TGFβ-induced EMT either independently or simultaneously. To test this, 4T1 cells were treated with either TubA at 10 μM, GC7 at 10 μM or both for 48 hours. At this time point, protein lysates were collected as well as phase-contrast images (FIGS. 6B and 6C). At that same time point, the media was changed and the cells were re-treated with the same drugs at the same concentrations; however, this time with the addition of TGFβ at 2.5 ng/mL. The inventors collected protein lysates and phase-contrast images just one day post TGFβ treatment, calling this the 72-hour time point (FIGS. 6B and 6C). In addition, the inventors collected mRNA, protein lysates, phase-contrast and immunofluorescences images two days post TGFβ treatment, calling this the 96-hour time point (FIGS. 6A, 6B, 6C and 6D).
Images were taken of cells plated on a 6 well plate with appropriate conditions or treatments for experiment using widefield-brightfield phase contrast microscopy on a Leica DMI6000 B inverted microscope at 20× magnification.

Assay [3] has as its system eIF5A localization in MDA-MB-468 cells. In words: Immunofluorescence, subcellular localization of total eIF5A. The format is cell-based, human. The conditions noted are these: 1 and 10 μM GC7, 48 hours. The method, then:
as §1, §2

Assay [4] has as its system eIF5A localization in MCF10CA1h cells. The assay is described as above. The format is cell-based, human. The note with it: 1 and 10 μM GC7, 48 hours. The method, then:
as §1, §2

Another assay relates to MCF10CA1h cells. Put plainly: Chicken CAM xenograft, tumor weight and metastasis (human Alu qPCR). The format is in vivo. On the procedure: FIGS. 11A and 11B. […] Human triple negative MCF10CA1h breast cancer cells were pre-treated with TGFβ and fibronectin for 7 days to induce PEAK1-dependent epithelial-mesenchymal transition and tumorigenic potential. 1e6 cells were xenografted onto the chorioallantoic membrane of 10 day old chicken embryos in 20 uL of growth factor reduced Matrigel, and subsequently treated with a vehicle control, GC7, TubastatinA (TubA) or both GC7/TubA at either 1 uM (panel A) or 10 uM (panel B). Tumors were allowed to develop over the following 7 days and then harvested and weighed along with the indicated liver, lung and brain tissues. gDNA was isolated from these additional tissues to quantify human Alu repeat sequence composition normalized to host chicken GAPDH as a measure of relative cell metastasis to the indicated tissues.
Based on the partially impaired expression of Zeb1 in vitro, we wanted to assess whether this effect would result in altered metastatic dissemination using the in vivo chicken CAM system.
In general terms: Xenograft models place foreign cells or tissue in a host animal.

Assay [5] deals with ZEB1 expression in 4T1 cells. Put plainly: qPCR ZEB1 mRNA, TGFβ-induced EMT. The note with it: for ZEB1 mRNA expression: GC7 10 μM pre-treatment. Type of assay: cell-based, mouse.
Text: The pathway in which the inventors are interested in targeting eIF5A is in the context of TGFβ-induced EMT and TGFβ is a well-characterized inducer of EMT. […] Phase-contrast images are shown to the right of the western blot to indicate a shift in morphology after treatment with TGFβ. […] Since TGFβ can induce PEAK1 upregulation, while in contrast, hypusinated eIF5A promotes PEAK1 translation, the inventors sought to see if TGFβ alone can upregulate hypusinated eIF5A. Post-translational modifications can occur relatively fast. Therefore short-term treatments of TGFβ on 4T1, 67NR and MCF10CA1a cells were performed initially. Protein lysates were collected after 10, 30 and 120 minutes of treatment and immunoblotted for hypusine, total eIF5A and β-actin (FIG. 4B). […] Relative band intensity is graphed to the right of the western blot in which the ratio between hypusine to total eIF5A is compared first between treated samples to control samples then a ratio is calculated comparing each time point relative to 10 minutes as a starting time point of reference. […] The inventors were also interested in what genes were altered at the transcriptional level when dual treating with TGFβ and GC7 at the same time to block EMT. To test for this, 4T1 and MCF10CA1a cells were plated on either plastic or fibronectin extra-cellular matrix (ECM) protein and pre-treated them with GC7 at 10 μM for 48 hours to ensure the eIF5A hypusination pathway is blocked. The inventors then treated with TGFβ at 2.5 ng/mL and collected RNA after 12 or 48 hours. […] Phase contrast images were also taken before RNA collection to show changes in morphology where EMT was either induced or reversed (FIG. 4C). […] Also, with the correct treatment time and conditions, inhibition of hypusination can block TGFβ-induced EMT.
as §3
Cell lines were plated in a 6 well plate at 1e5 cells/mL and left to attach overnight. […]

For another assay, the system named is breast cancer cells. In words: GC7 potency after induction of EMT by TGFβ. The conditions noted are these: induction of EMT by TGFβ treatment. Type of assay: cell-based.
Where [6] appears, read: 1 μM GC7, fibronectin and TGFβ pre-treated cells, 7 days.

Take `N=C(N)NCCCCCCCN.O=S(=O)(O)O` [GC7, N1-Guanyl-1,7-diaminoheptane]: the “nuclear depletion of eIF5A” value in assay [1] is “Nuclear depletion of eIF5A was observed”; in assay [3], “this change was significant only in the case of MDA-MB-468 cells”; in assay [4], “Nuclear depletion of eIF5A was observed”. The “FOXP3+ T regulatory cell populations” value in assay [2] is “significant reduction in FOXP3+ T regulatory cell populations”. For the same compound, in the assay with 4T1 cells, the cell number entry is recorded as “drastic reduction in cell number”. Also, the “metastatic dissemination to lung” value in the assay with MCF10CA1h cells (setting [6]) is reported as “significantly reduced”. In addition, in the assay on MCF10CA1h cells (setting [6]), the primary tumor mass result is given as “unaffected”. For the same compound, the metastasis entry with MCF10CA1h cells (low doses of GC7 (1 uM, panel A)) is given as “reduces metastasis”. In addition, in assay [5] (10 μM each drug, re-treated with TGFβ 2.5 ng/mL at 48 hours, 96-hour time point), the “TGFβ-induced EMT, ZEB1 mRNA (qPCR)” value was “failed to block TGFβ-induced EMT”. Also, the “ZEB1 mRNA expression” value in assay [5] (TGFβ 2.5 ng/mL 12 hours, fibronectin) is reported as “this effect was blocked on fibronectin”; in assay [5] (TGFβ 2.5 ng/mL 12 hours, plastic), “decreased”; in assay [5] (TGFβ 2.5 ng/mL 48 hours) it was “This effect was not seen after 48 hours”. Besides, in the assay with breast cancer cells, the “GC7 potency after TGFβ-induced EMT” value is on record as “increases GC7 potency”.
